Data set [1] is described as follows: Viability assay (MTT cytotoxicity). The data set is classed as cell-based. The note with it: human; for CC50 at 48 h: hela-p4 cells, 2 days. The protocol: The cytotoxicity of compounds was evaluated using un-infected and infected HeLa-P4 cell and CEM leukemia cells. CEM cell were obtained from the American Type Tissue Collection (Rockville, MD).
A serial dilution of drugs is done to evaluate the cytotoxicity concentration and is identified by CC50 (concentration of drug which induces 50% of cytotoxicity)
The HeLa-P4 was cultured in the presence or absence of compounds for 2 days. After this time period, cells were cultivated with MTT for 3 hours, further the medium is removed. And the lysis buffer is incubated for 1 hour, followed by plate reading at 540 nm in a microplate reader.

The target of data set [2] is T1, HBX2 HIV integrase (Human immunodeficiency virus type 1 group M subtype B, UniProt P04585).
T1 construct: The pET-15b-IN plasmid contains the cDNA encoding the HBX2 HIV integrase; His tag (N, cleaved yes); made in house; host or cells: Escherichia coli BL21 (DE3)
In words: 3' LTR Processing Assay. The data set is classed as biochemical. The protocol: (§1) The pET-15b-IN plasmid contains the cDNA encoding the HBX2 HIV integrase. His-tagged integrase protein was overexpressed in Escherichia coli BL21 (DE3) and purified under native conditions. Briefly, at an OD of 0.8, fusion protein expression was induced in bacterial cultures by the addition of IPTG (1 mM). Cultures were incubated for 3 h at […], after which cells were centrifuged. The cell pellet was resuspended in ice-cold buffer A [20 mM Tris-HCl (pH 8), 1 M NaCl, 4 mM β-mercaptoethanol, and 5 mM imidazole], treated with lysozyme for 1 h on ice, and sonicated. After centrifugation (30 min at 10 000 rpm), the supernatant was filtered (0.45 µm) and incubated for at least 2 h with Ni-NTA agarose beads (Pharmacia). The beads were washed twice with 10 volumes of buffer A, 10 volumes of buffer A with 50 mM imidazole, and 10 volumes of buffer A with 100 mM imidazole. His-tagged integrase was then eluted with buffer A supplemented with 50 µM ZnSO4 and 1 M imidazole. The integrase concentration was adjusted to 0.1 mg/mL in buffer A. The fusion protein was cleaved using thrombin and dialyzed overnight against 20 mM Tris-HCl (pH 8), 1 M NaCl, and 4 mM β-mercaptoethanol. After removal of biotinylated thrombin by incubation with streptavidin-agarose magnetic beads (Novagen, Madison, WI), a second dialysis was performed for 2 h against 20 mM Tris-HCl (pH 8), 1 M NaCl, 4 mM β-mercaptoethanol, and 20% (v/v) ethylene glycol. Fractions were aliquoted and rapidly frozen at -80°C.
(§2) Oligonucleotides U5B (5'-[…]-3'), U5B-2 (5'-GTGTGGAAAATCTCTAGCA-3'), U5A (5'-[…]-3') were purchased from Eurogentec (Liege, Belgium) and further purified on an 18% denaturing acrylamide/urea gel. For processing, strand transfer, 100 pmol of U5B, U5B-2, respectively, were radiolabeled using T4 polynucleotide kinase and 50 µCi of [γ-32P]ATP (3000 Ci/mmol). […]
Processing reaction was performed using U5A-U5B, in buffer containing 20 mM Tris (pH 7.2), 50 mM NaCl, 10 mM DTT, and 10mM MgCl2. […] Gels were analyzed using a STORM Molecular Dynamics phosphorimager and quantified with Image Quant™ 4.1 software.

Data set [3] has as its target T1, HBX2 HIV integrase. In words: Strand Transfer Assay. The data set is classed as biochemical. The protocol:
as §1, §2
Processing, strand transfer reactions were performed using U5A-U5B-2, in buffer containing 20 mM Tris (pH 7.2), 50 mM NaCl, 10 mM DTT, 10mM MgCl2. […] Gels were analyzed using a STORM Molecular Dynamics phosphorimager and quantified with Image Quant™ 4.1 software.

Data set [4] relates to wild type HIV-1 virus (NL 4.3 strains). In words: Antiviral activity assay on Hela P4 cells. The data set is classed as cell-based. To be noted: Human immunodeficiency virus 1, HeLaP4, 48 h, read-out: P4 IC50 (µM). The protocol:
The antiviral activity is determined by infecting HelaP4 cells with a wild type HIV-1 virus (NL 4.3 strains at 3 ng) on cells in presence or absence of drugs.
A serial dilution of drugs is done to evaluate the EC50. The effective concentration is the concentration of product at which virus replication is inhibited by 50 percent.
After 48 hours incubation, the quantification is done by the evaluation of β-Galactosidase produced by the infected Hela P4 cells. The viral activity is evaluated by colorimetric assay, CPRG, followed by plate reading at 570 nm with a reference of 690 nm. The CPRG test is a colorimetric assay which allows to quantity the β-galactosidase produced by HIV-1 infected indicator cells (the β-Gal gene being under the control of the HIV-1 LTR).

Data set [5] shares this test system. In words: Antiviral activity assay CEM cells. The format is cell-based. To be noted: Human immunodeficiency virus 1, CCRF-CEM. The protocol:
The activity is determined by infecting CEM cells with a wild type HIV-1 virus (NL 4.3 strains at 3ng) on cells in presence or absence of drugs.
A serial dilution of drugs is done to evaluate the EC50.
The effective concentration is the concentration of product at which virus replication is inhibited by 50 percent.
After 48 hours incubation, the quantification is done by the evaluation of the viral protein p24 with a commercial Elisa Kit. P24 is a protein essential to the replication virus cycle. The quantification of this enzyme is proportional to the amount of virus produced by the infected cells.

Where [6] appears, read: U5A-U5B substrate DNA 12.5 nM, IN 200 nM, 10mM MgCl2, up to 2 h at 37°C, read-out: Processing IC50.
Where [7] appears, read: U5A-U5B-2 substrate DNA 12.5 nM, IN 200nM, 10mM MgCl2, up to 2 h at 37°C, read-out: Transfert IC50.

Like-named read-outs stand apart in the source and are kept apart here. Bounds are passed on as bounds.

On to `COc1cc(/C=C/c2ccc3ccc(C(=O)O)c(O)c3n2)cc(O)c1O` [FZ41, reference compound], for which the CC50 at 48 h in data set [1] (comparative example, read-out: Cytoto-IC50 IC50) was above 100 µM.
By IC50 is commonly meant the midpoint of a concentration-inhibition curve. On to `O=C(O)c1ccc2ccc(/C=C/c3cc(O)c(O)c(Cl)c3)nc2c1O` [SQE41, (E)-2-(3-chloro-4,5-dihydroxystyryl)-8-hydroxyquinoline-7-carboxylic acid], for which the IC50 in data set [2] turned out to be 0.28 µM; in data set [3] it was 0.28 µM; in data set [4], 5 µM. Also, the EC50 in data set [5] (CEM cells, NL 4.3, 48 hours, p24 Elisa, read-out: CEM) was 36 µM. The same compound had an IC50 at 2 days in data set [1] (HeLa-P4 cells) of 22.5 µM.
In the case of `COc1cc(/C=C/c2ccc3ccc(Br)c(O)c3n2)cc(O)c1O` [SQE63], the 50% inhibitory concentration (IC50) in data set [2] (setting [6]) came to 0.95 µM; in data set [3] (setting [7]) it was 0.95 µM; in data set [4] it was 0.82 µM. For the same compound, in data set [5] (48 h, read-out: CEM (µM)), the EC50 was found to be 2.8 µM. Besides, the CC50 at 48 h in data set [1] (read-out: Cytotoxicity IC50) was determined as 11.7 µM.
Take `O=C(O)c1ccc2ccc(/C=C/c3cc(O)c(O)c([N+](=O)[O-])c3)nc2c1O` [SQE67]: the 50% inhibitory concentration (IC50) worked out at 0.15 µM in data set [2] (setting [6]), 0.18 µM in data set [3] (setting [7]) and 6.2 µM in data set [4]. The EC50 in data set [5] (48 h, read-out: CEM (µM)) was found to be 42 µM. For the same compound, in data set [1] (read-out: Cytotoxicity IC50), the CC50 at 48 h stood at 35 µM.

These data come from patent EP2147913A1, “Styrylquinolines, their process of preparation and their therapeutic uses” (BioAlliance Pharma, priority 2008, dated 2010).
